Results on 2 compounds are retold here after ChEMBL document CHEMBL3526155, “Endoxifen, the active metabolite of tamoxifen, is a substrate of the efflux transporter P-glycoprotein (multidrug resistance 1)” (Drug Metab Dispos, 2011).

Some results are limits rather than exact numbers.

Data set [1] deals with T1, MDR1 (ABCB1) (Homo sapiens, UniProt P08183). As to the kind of experiment: Activity of human MDR1 expressed in pig LLC-PK cells assessed as apparent permeability from basolateral to apical side at 5 uM after 1 to 4 hrs by LC-MS/MS analysis. To be noted: LLC-PK1. Format: ADME, cell-based.
Data set [2] has as its system Liver. The experiment in a line: Drug uptake in MDR1A-deficient CF-1 mouse liver at 5 mg/kg, po after 0.5 to 4 hrs by LC-MS/MS analysis. Format: ADME, organism-based. More on the design: dose 5 mg/kg, route oral. To be noted: in vivo.
Data set [3] deals with T1, MDR1 (ABCB1). As to the kind of experiment: Activity of human MDR1 expressed in pig LLC-PK cells assessed as efflux ratio of apparent permeability from basolateral to apical to apical to basolateral side at 5 uM after 1 to 4 hrs by LC-MS/MS analysis. The format is ADME, cell-based. To be noted: LLC-PK1.
Data set [4] is described as follows: Apparent permeability from apical to basolateral side in pig LLC-PK cells at 5 uM after 1 to 4 hrs by LC-MS/MS analysis. The format is ADME, cell-based, Sus scrofa. To be noted: LLC-PK1.
Data set [5] concerns Plasma. As to the kind of experiment: Drug uptake in MDR1A-deficient CF-1 mouse plasma at 5 mg/kg, po after 0.5 to 4 hrs by LC-MS/MS analysis. To be noted: in vivo. More on the design: dose 5 mg/kg, route oral. The format is ADME, organism-based.
Data set [6] has as its system Brain. As to the kind of experiment: Drug uptake in wild-type CF-1 mouse brain at 5 mg/kg, po after 0.5 to 4 hrs by LC-MS/MS analysis. The format is ADME, organism-based. Also noted: dose 5 mg/kg, route oral. The conditions noted are these: in vivo.
A short description of data set [7]: Efflux ratio of apparent permeability from basolateral to apical to apical to basolateral side in pig LLC-PK cells at 5 uM after 1 to 4 hrs by LC-MS/MS analysis. Format: ADME, cell-based, Sus scrofa. To be noted: LLC-PK1.
Data set [8] can be described thus: Apparent permeability from basolateral to apical side in pig LLC-PK cells at 5 uM after 1 to 4 hrs by LC-MS/MS analysis. The conditions noted are these: LLC-PK1. The format is ADME, cell-based, Sus scrofa.
Data set [9] concerns Brain. As to the kind of experiment: Drug uptake in MDR1A-deficient CF-1 mouse brain at 5 mg/kg, po after 0.5 to 4 hrs by LC-MS/MS analysis. Also noted: dose 5 mg/kg, route oral. The format is ADME, organism-based. The conditions noted are these: in vivo.
For data set [10], the system named is Brain. As to the kind of experiment: Drug uptake in MDR1A-deficient CF-1 mouse brain at 5 mg/kg, po after 0.5 to 4 hrs by LC-MS/MS analysis relative to wild-type. The conditions noted are these: in vivo. Also noted: dose 5 mg/kg, route oral. Format: ADME, organism-based.
Data set [11] has as its system Plasma. The experiment in a line: Drug uptake in wild-type CF-1 mouse plasma at 5 mg/kg, po after 0.5 to 4 hrs by LC-MS/MS analysis. The conditions noted are these: in vivo. The format is ADME, organism-based. More on the design: dose 5 mg/kg, route oral.
Data set [12] addresses T1, MDR1 (ABCB1). As to the kind of experiment: Activity of human MDR1 expressed in pig LLC-PK cells assessed as apparent permeability from apical to basolateral side at 5 uM after 1 to 4 hrs by LC-MS/MS analysis. The conditions noted are these: LLC-PK1. The format is ADME, cell-based.
In data set [13] the test system is Liver. As to the kind of experiment: Drug uptake in wild-type CF-1 mouse liver at 5 mg/kg, po after 0.5 to 4 hrs by LC-MS/MS analysis. Also noted: dose 5 mg/kg, route oral. The conditions noted are these: in vivo. Format: ADME, organism-based.
A short description of data set [14]: Ratio of drug level in brain to plasma in MDR1A-deficient CF-1 mouse at 5 mg/kg, po after 0.5 to 4 hrs by LC-MS/MS analysis. The format is ADME, organism-based. More on the design: dose 5 mg/kg, route oral. To be noted: read-out: BPR.

T1 sequence (P08183 whole entry): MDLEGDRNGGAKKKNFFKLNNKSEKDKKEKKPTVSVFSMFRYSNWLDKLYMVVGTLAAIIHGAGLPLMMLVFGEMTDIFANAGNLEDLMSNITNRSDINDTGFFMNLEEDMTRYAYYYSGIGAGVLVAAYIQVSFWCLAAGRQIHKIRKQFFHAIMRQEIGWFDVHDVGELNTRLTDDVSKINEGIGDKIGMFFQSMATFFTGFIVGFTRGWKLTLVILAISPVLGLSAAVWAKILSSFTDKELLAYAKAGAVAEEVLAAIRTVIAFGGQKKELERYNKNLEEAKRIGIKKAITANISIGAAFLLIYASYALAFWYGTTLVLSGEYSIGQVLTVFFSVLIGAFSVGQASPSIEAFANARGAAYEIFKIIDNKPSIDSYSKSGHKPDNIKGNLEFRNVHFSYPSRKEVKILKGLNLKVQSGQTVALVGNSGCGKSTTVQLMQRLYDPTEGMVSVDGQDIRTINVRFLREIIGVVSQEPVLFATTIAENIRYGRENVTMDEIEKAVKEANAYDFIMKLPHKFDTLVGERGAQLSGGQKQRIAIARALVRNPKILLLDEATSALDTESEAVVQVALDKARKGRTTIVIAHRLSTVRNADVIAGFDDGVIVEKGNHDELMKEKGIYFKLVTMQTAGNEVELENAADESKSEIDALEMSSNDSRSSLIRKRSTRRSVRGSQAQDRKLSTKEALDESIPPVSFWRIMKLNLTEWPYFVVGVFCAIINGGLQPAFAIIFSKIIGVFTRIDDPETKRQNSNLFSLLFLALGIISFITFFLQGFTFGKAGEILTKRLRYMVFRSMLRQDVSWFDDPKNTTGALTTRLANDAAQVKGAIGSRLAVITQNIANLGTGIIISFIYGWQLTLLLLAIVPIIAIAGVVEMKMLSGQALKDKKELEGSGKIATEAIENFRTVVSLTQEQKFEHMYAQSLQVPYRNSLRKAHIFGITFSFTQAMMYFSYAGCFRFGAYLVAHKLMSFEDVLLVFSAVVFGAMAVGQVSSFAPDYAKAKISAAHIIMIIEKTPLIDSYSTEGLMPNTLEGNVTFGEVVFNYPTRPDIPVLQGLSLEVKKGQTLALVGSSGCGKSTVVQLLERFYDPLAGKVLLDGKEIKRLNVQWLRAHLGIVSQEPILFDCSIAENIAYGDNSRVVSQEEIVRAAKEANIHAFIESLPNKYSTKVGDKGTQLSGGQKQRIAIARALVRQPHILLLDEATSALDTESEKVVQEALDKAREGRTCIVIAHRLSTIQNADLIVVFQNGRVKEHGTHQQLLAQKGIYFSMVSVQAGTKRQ

One may read the Papp B→A as how fast a substance crosses the layer from the basolateral side. On to `C[C@H]1O[C@@H](O[C@H]2[C@@H](O)C[C@H](O[C@H]3[C@@H](O)C[C@H](O[C@H]4CC[C@@]5(C)[C@H](CC[C@@H]6[C@@H]5C[C@@H](O)[C@]5(C)[C@@H](C7=CC(=O)OC7)CC[C@]65O)C4)O[C@@H]3C)O[C@@H]2C)C[C@H](O)[C@@H]1O` [DIGOXIN], for which the Papp B→A at 5 µM on MDR1 (ABCB1) [1] was 6.74 ×10⁻⁶ cm/s.
By efflux ratio is commonly meant the permeability from basolateral to apical divided by that in the opposite direction, in the common usage. As a reminder, the Papp A→B is how fast a substance crosses the layer from the apical side. `CC/C(=C(\c1ccc(O)cc1)c1ccc(OCCNC)cc1)c1ccccc1` [ENDOXIFEN]: the Drug uptake result with Liver [2], with Plasma [5], in the data set on Brain [6], in the data set with Brain [9], in the data set with Plasma [11] and in the data set on Liver [13] was “Active” each time. Moreover, the efflux ratio at 5 µM at MDR1 (ABCB1) [3] was 2.67; in data set [7] it was 1.07. The Papp A→B at 5 µM in data set [4] worked out at 1.83 ×10⁻⁶ cm/s; at MDR1 (ABCB1) [12], 1.1 ×10⁻⁶ cm/s. Further, the values for the Papp B→A at 5 µM (in data set [8]; on MDR1 (ABCB1) [1]) were 2.15 ×10⁻⁶ cm/s and 2.77 ×10⁻⁶ cm/s, respectively. For the same compound, in the data set with Brain [10], the Ratio is on record as 20. For the same compound, the Kp in data set [14] was > 10.
